Test results from ChEMBL document CHEMBL1146070, “Investigating the role of stereochemistry in the activity of anticancer acylfulvenes: synthesis, reductase-mediated bioactivation, and cellular toxicity” (J Med Chem, 2006).

System: HEK293
Assay: Cytotoxicity against HEK293 cells by MTT assay
Format: functional, cell-based
Conditions: Homo sapiens

| Structure (SMILES) | IC50 [µM] |
| --- | --- |
| CC1=CC2=C(C)C3(CC3)[C@@](C)(O)C(=O)C2=C1 [ACYLFULVENE] | 1.4 |
| CC1=C(CO)C2=C(C)C3(CC3)[C@@](C)(O)C(=O)C2=C1 [IROFULVEN] | 1.2 |
